Data taken from patent EP0421935B1, “Insect neuropeptides” (Novartis AG, priority 1989, dated 1999).
Bridge positions count the residues as written; N and C are the ends. Square brackets hold non-standard residues; d marks the D form. Peptide text beside a SMILES is read from it. pGlu = O=C1CC[C@@H](C(=O)O)N1

Test system: corpora allata which have been surgically removed from newly molted 5 stadium Manduca sexta larvae
Test: in vitro JH biosynthesis assay (rate of [14C]JH biosynthesis by excised CC/CA complex)
Assay type: cell-based
Protocol: The biological activity of native LAS and LASA's is tested in an in vitro JH-biosynthesis assay using newly molted 5th stadium Manduca sexta larval CC/CA complex. The biological activity of each of the LAS and LASA preparations made according to the following examples is assayed according to a procedure essentially as described (except for media employed) by Pratt and Tobe, 1974 Life Sci vl4:575-586, which is incorporated by reference. This procedure measures the rate of biosynthesis of Juvenile Hormone (JH) by the corpora allata which have been surgically removed from newly molted 5 stadium Manduca sexta larvae. One corpus cardiacum-corpus allatum complex is maintained in 100 µl of TC-199 medium (components of which are shown below) and Hank's salts, and is shaken using a mechanical shaker. The sample to be tested for LAS-like activity is dried and dissolved in TC-199 medium. Then an equal volume of TC-199 medium containing [^14C] methionine is added, and allowed to incubate for 4 hours. […] is extracted from the medium using iso-octane and the extract is assayed by liquid scintillation counting. The rate of biosynthesis by glands exposed to the sample is compared to the rate observed for control glands. The presence of LAS or LASA causes a decrease in the rate of biosynthesis.

| Compound | allatostatin activity in bioassay (crude oxidized synthetic peptide, before reversed phase LC purification) | level of activity (amidated carboxy terminus compared with Native LAS with free carboxy terminus, the test is not given) |
| --- | --- | --- |
| CC[C@H](C)[C@@H]1NC(=O)[C@@H]2CCCN2C(=O)[C@H](CC(N)=O)NC(=O)[C@H](Cc2ccccc2)NC(=O)[C@H](Cc2ccc(O)cc2)NC(=O)[C@@H](NC(=O)[C@H](CCC(N)=O)NC(=O)[C@H](CCCNC(=N)N)NC(=O)[C@H](Cc2ccccc2)NC(=O)[C@H](CCCNC(=N)N)NC(=O)[C@@H](NC(=O)[C@@H]2CCC(=O)N2)C(C)C)CSSC[C@@H](C(=O)N[C@@H](Cc2ccccc2)C(=O)O)NC(=O)[C@H](CO)NC1=O [LAS, pGlu-Val-Arg-Phe-Arg-Gln-Cys-Tyr-Phe-Asn-Pro-Ile-Ser-Cys-Phe-OH] ([pGlu]VRFRQCYFNPISCF-OH; disulfide 7-14) | exhibits allatostatin activity | – |
| CC[C@H](C)[C@@H]1NC(=O)[C@@H]2CCCN2C(=O)[C@H](CC(N)=O)NC(=O)[C@H](Cc2ccccc2)NC(=O)[C@H](Cc2ccc(O)cc2)NC(=O)[C@@H](NC(=O)[C@H](CCC(N)=O)NC(=O)[C@H](CCCNC(=N)N)NC(=O)[C@H](Cc2ccccc2)NC(=O)[C@H](CCCNC(=N)N)NC(=O)[C@@H](NC(=O)[C@@H]2CCC(=O)N2)C(C)C)CSSC[C@@H](C(=O)N[C@@H](Cc2ccccc2)C(N)=O)NC(=O)[C@H](CO)NC1=O [amidated form] ([pGlu]VRFRQCYFNPISCF-NH2; disulfide 7-14) | – | same level of activity |
